Measurements: patent US20100297194A1, “FORMULATION FOR ORAL ADMINISTRATION OF APOPTOSIS PROMOTER” (priority 2009, published 2010)
Read-outs that look alike come from different tables or passages of the source.

Key:
[1] = solubility in lipid solvents (Example 1); assay type: physicochemical; conditions: ambient conditions;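 also: solubility in mg/g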
Description: Solubility of ABT-263 parent (free base, crystalline Form I) and ABT-263 bis-HCl salt was tested in a variety of lipid solvents and solvent mixtures in ambient conditions. “PE-91” is Phosal 53 MCT™+ethanol, 9:1 by volume. “LOT-343” is Labrafil M 1944 CS™+oleic acid+Tween 80™, 30:40:30 by weight.
In some cases, indicated in Table 4 by an asterisk (*), solubility was initially high but precipitation occurred upon standing.

[2] = rat; 2 mg/ml solution in PEG-400/DMSO; cited from earlier work
[3] = drug solubility in ternary excipient systems (Example 2); assay type: physicochemical; design: key: ✓: vehicle miscible, or drug fully dissolved in vehicle; X: vehicle immiscible or miscible but turbid, or residual solids present (due to undissolved drug or precipitation); conditions: 10% salt, 20% free base, listed as ABT-263 free base
Source text: Solvents evaluated included Labrafil M 1944 CS™, Imwitor 742™ oleic acid, Capmul PG-8™, Capmul PG-12™, Lauroglycol 90™ and Phosal 53 MCT™. Surfactants evaluated included Tween™ 80, Cremophor RH40™, Gelucire 44/14™ and Labrasol™.

[4] = monkey; similar solution in PEG-400/DMSO; cited from earlier work
[5] = oral bioavailability in a rat model; conditions: in vivo, in 90% phosphatidylcholine+medium chain triglycerides 53/29 and 10% ethanol

CC1(C)CCC(c2ccc(Cl)cc2)=C(CN2CCN(c3ccc(C(=O)NS(=O)(=O)c4ccc(N[C@H](CCN5CCOCC5)CSc5ccccc5)c(S(=O)(=O)C(F)(F)F)c4)cc3)CC2)C1 [ABT-263, N-(4-(4-((2-(4-chlorophenyl)-5,5-dimethyl-1-cyclohex-1-en-1-yl)methyl)piperazin-1-yl)benzoyl)-4-(((1R)-3-(morpholin-4-yl)-1-((phenylsulfanyl)methyl)propyl)amino)-3-((trffluoromethyl)sulfonyl)benzene-sulfonamide]
Solubility ([1]; in Cremophor RH40): >226 mg/g | Solubility ([1]; in LOT-343 (Labrafil M 1944 CS+oleic acid+Tween 80 30:40:30 by weight)): >479 mg/g | Solubility ([1]; in Labrafil M 1944 CS, listed as ABT-263 parent): >265 mg/g | Solubility ([1]; in Labrafil M 2125 CS, listed as ABT-263 parent): >290 mg/g | Solubility ([1]; in Labrasol, listed as ABT-263 parent): >242 mg/g | Solubility ([1]; in Lipoid S75 MCT, listed as ABT-263 parent): 150 to 200 mg/g | Solubility ([1]; in Miglyol 810, listed as ABT-263 parent): <76 mg/g | Solubility ([1]; in PE-91 (Phosal 53 MCT+ethanol 9:1 by volume), listed as ABT-263 parent): >250 mg/g | Solubility ([1]; in PEG-400, listed as ABT-263 parent): >200 mg/g | Solubility ([1]; in Phosal 53 MCT): >300 mg/g | Solubility ([1]; in Tween 20, listed as ABT-263 parent): >256 mg/g | Solubility ([1]; in Tween 80, listed as ABT-263 parent): >256 mg/g | Solubility ([1]; in corn oil, listed as ABT-263 parent): <86 mg/g | Solubility ([1]; in oleic acid, listed as ABT-263 parent): >514 mg/g | Solubility ([1]; in poloxamer 124, listed as ABT-263 parent): >231 mg/g | Solubility ([1]; in sesame oil, listed as ABT-263 parent): <75 mg/g | oral bioavailability [2]: around 20% | ABT-263 solubility ([3]; ILC (Imwitor 742/Labrafil M 1944 CS/Cremophor RH40) 50:40:10 by weight): X | ABT-263 solubility ([3]; ILC (Imwitor 742/Labrafil M 1944 CS/Cremophor RH40) 60:30:10 by weight): X | ABT-263 solubility ([3]; ILL (Imwitor 742/Labrafil M 1944 CS/Labrasol) 40:40:20 by weight): X | ABT-263 solubility ([3]; ILL (Imwitor 742/Labrafil M 1944 CS/Labrasol) 50:30:20 by weight): X | ABT-263 solubility ([3]; ILL (Imwitor 742/Labrafil M 1944 CS/Labrasol) 50:40:10 by weight): X | ABT-263 solubility ([3]; ILL (Imwitor 742/Labrafil M 1944 CS/Labrasol) 60:30:10 by weight): X | ABT-263 solubility ([3]; LIT (Labrafil M 1944 CS/Imwitor 742/Tween 80) 30:40:30 by weight): X | ABT-263 solubility ([3]; LIT (Labrafil M 1944 CS/Imwitor 742/Tween 80) 40:30:30 by weight): X | ABT-263 solubility ([3]; LLL (Lauroglycol 90/Labrafil M 1944 CS/Labrasol) 50:40:10 by weight): X | ABT-263 solubility ([3]; LLL (Lauroglycol 90/Labrafil M 1944 CS/Labrasol) 60:30:10 by weight): X | oral bioavailability [4]: around 20%

CN(C)CC[C@H](CSc1ccccc1)Nc1ccc(S(=O)(=O)NC(=O)c2ccc(N3CCN(Cc4ccccc4-c4ccc(Cl)cc4)CC3)cc2)cc1[N+](=O)[O-] [ABT-737, N-(4-(4-((4′-chloro-(1,1′-biphenyl)-2-yl)methyl)piperazin-1-yl)benzoyl)-4-(((1R)-3-(dimethylamino)-1-((phenylsulfanyl)methyl)propyl)amino)-3-nitrobenzenesulfonamide]
bioavailability [5]: 3.3%
